Measurements taken from ChEMBL document CHEMBL4804286, “3-amino-4-(4-(4 (dimethylcarbamoyl) phenyl)-1,4-diazepan-1-yl) thieno [2,3-b] pyridine-2-carboxamide for use in cancer therapy and formulations comprising the same” (2020).
“And” between values parts separate entries of the source, which are not always exact repeats. Equal values may be shown once. The source made the active and inactive calls. No cut-off for these calls is given here.

Experiments:
[1] = target: Mitogen-activated protein kinase 1 (Homo sapiens) (UniProt P28482); assay: Inhibition of human ERK2 assessed as percent of control at 2000 nM by KINOMEscan assay relative to control; set-up: scale not given: the % may be the effect or the level left
[2] = target: Phosphatidylinositol 4-phosphate 5-kinase type-1 alpha (Homo sapiens) (UniProt Q99755); assay: Inhibition of human PIP5K1A assessed as percent of control at 2000 nM by KINOMEscan assay relative to control; set-up: scale not given: the % may be the effect or the level left
[3] = target: Dual specificity tyrosine-phosphorylation-regulated kinase 2 (Homo sapiens) (UniProt Q92630); assay: Inhibition of human DYRK2 assessed as percent of control at 2000 nM by KINOMEscan assay relative to control; set-up: scale not given: the % may be the effect or the level left
Dual specificity tyrosine-phosphorylation-regulated kinase 2 (Homo sapiens), sequence (Q92630 whole entry): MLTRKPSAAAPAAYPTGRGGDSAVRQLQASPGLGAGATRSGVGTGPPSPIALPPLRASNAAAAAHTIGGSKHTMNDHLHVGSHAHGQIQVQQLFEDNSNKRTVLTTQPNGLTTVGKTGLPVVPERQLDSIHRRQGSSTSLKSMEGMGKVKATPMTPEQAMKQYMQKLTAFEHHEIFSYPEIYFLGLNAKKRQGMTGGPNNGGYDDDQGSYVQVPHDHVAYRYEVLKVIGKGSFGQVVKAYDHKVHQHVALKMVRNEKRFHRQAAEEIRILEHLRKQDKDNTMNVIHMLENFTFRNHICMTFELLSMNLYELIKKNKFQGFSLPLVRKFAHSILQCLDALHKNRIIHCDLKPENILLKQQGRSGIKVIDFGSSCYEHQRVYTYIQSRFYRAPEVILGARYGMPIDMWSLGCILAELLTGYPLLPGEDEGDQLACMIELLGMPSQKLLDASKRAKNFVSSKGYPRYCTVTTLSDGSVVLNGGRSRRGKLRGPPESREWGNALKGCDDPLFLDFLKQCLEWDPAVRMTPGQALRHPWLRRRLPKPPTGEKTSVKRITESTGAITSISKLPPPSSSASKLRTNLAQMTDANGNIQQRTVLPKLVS

[4] = target: Glycogen synthase kinase-3 alpha (Homo sapiens) (UniProt P49840); conditions: INHIBITOR, dose 2000.0 nM
Description: Inhibition of human GSK3A at 2000 nM by KINOMEscan assay

[5] = target: NUAK family SNF1-like kinase 2 (Homo sapiens) (UniProt Q9H093); assay: Inhibition of human SNARK assessed as percent of control at 2000 nM by KINOMEscan assay relative to control; set-up: scale not given: the % may be the effect or the level left
[6] = target: Mitogen-activated protein kinase kinase kinase kinase 5 (Homo sapiens) (UniProt Q9Y4K4); assay: Inhibition of human MAP4K5 assessed as percent of control at 2000 nM by KINOMEscan assay relative to control; set-up: scale not given: the % may be the effect or the level left
Mitogen-activated protein kinase kinase kinase kinase 5 (Homo sapiens), sequence (Q9Y4K4 whole entry, looked up): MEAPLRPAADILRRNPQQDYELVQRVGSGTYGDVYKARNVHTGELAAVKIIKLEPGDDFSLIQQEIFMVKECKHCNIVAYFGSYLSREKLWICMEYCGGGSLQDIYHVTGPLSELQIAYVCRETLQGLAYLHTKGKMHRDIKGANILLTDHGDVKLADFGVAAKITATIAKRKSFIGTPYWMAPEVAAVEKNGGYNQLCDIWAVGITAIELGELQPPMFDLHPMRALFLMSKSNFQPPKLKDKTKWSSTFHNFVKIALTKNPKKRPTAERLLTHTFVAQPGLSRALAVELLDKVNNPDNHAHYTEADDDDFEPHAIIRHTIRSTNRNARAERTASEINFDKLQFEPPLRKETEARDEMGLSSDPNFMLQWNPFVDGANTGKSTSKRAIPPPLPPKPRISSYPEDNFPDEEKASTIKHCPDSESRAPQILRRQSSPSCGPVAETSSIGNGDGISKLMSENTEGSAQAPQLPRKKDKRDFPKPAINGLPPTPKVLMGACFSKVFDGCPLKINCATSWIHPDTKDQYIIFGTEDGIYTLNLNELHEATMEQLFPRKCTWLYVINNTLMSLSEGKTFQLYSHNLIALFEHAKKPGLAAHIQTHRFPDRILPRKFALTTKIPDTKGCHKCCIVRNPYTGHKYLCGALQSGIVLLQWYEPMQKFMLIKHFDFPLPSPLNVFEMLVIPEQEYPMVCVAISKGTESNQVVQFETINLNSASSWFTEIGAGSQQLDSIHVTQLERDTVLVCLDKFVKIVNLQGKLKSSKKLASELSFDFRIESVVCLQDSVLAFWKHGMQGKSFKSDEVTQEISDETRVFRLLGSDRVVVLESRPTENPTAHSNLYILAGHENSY

[7] = target: Mitogen-activated protein kinase kinase kinase 14 (Homo sapiens) (UniProt Q99558); assay: Inhibition of human NIK assessed as percent of control at 2000 nM by KINOMEscan assay relative to control; set-up: scale not given: the % may be the effect or the level left
[8] = target: Fibroblast growth factor receptor 3 (Homo sapiens) (UniProt P22607); assay: Inhibition of human FGFR3 assessed as percent of control at 2000 nM by KINOMEscan assay relative to control; set-up: scale not given: the % may be the effect or the level left
[9] = target: Hormonally up-regulated neu tumor-associated kinase (Homo sapiens) (UniProt P57058); assay: Inhibition of human HUNK assessed as percent of control at 2000 nM by KINOMEscan assay relative to control; set-up: scale not given: the % may be the effect or the level left
[10] = target: Wee1-like protein kinase (Homo sapiens) (UniProt P30291); assay: Inhibition of human WEE1 assessed as percent of control at 2000 nM by KINOMEscan assay relative to control; set-up: scale not given: the % may be the effect or the level left
[11] = target: Activin receptor type-2A (Homo sapiens) (UniProt P27037); assay: Inhibition of human ACVR2A assessed as percent of control at 2000 nM by KINOMEscan assay relative to control; set-up: scale not given: the % may be the effect or the level left
[12] = target: Casein kinase I isoform gamma-1 (Homo sapiens) (UniProt Q9HCP0); assay: Inhibition of human CSNK1G1 assessed as percent of control at 2000 nM by KINOMEscan assay relative to control; set-up: scale not given: the % may be the effect or the level left
Casein kinase I isoform gamma-1 (Homo sapiens), sequence (Q9HCP0 whole entry, looked up, canonical isoform): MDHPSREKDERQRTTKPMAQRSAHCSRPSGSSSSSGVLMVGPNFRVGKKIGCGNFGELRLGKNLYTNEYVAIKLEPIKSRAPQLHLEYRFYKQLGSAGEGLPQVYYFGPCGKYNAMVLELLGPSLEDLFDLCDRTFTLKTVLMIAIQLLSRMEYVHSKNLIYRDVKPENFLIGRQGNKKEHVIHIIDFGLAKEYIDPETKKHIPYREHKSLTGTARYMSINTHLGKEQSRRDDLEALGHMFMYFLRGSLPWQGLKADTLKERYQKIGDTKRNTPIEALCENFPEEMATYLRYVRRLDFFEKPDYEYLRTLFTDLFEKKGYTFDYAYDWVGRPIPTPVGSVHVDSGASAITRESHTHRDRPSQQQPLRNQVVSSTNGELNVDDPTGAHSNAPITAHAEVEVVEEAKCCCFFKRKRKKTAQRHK

[13] = system: Receptor-type tyrosine-protein kinase FLT3 (Homo sapiens), P36888 [D835V]; assay: Inhibition of human FLT3 D835V mutant assessed as percent of control at 2000 nM by KINOMEscan assay relative to control; set-up: scale not given: the % may be the effect or the level left; conditions: INHIBITOR
[14] = target: Calcium/calmodulin-dependent protein kinase type II subunit gamma (Homo sapiens) (UniProt Q13555); assay: Inhibition of human CAMK2G assessed as percent of control at 2000 nM by KINOMEscan assay relative to control; set-up: scale not given: the % may be the effect or the level left
[15] = system: Phosphatidylinositol 4,5-bisphosphate 3-kinase catalytic subunit alpha isoform (Homo sapiens), P42336 [I800L]; assay: Inhibition of human PIK3CA I800L mutant assessed as percent of control at 2000 nM by KINOMEscan assay relative to control; set-up: scale not given: the % may be the effect or the level left
[16] = target: Serine/threonine-protein kinase SIK1 (Homo sapiens) (UniProt P57059); assay: Inhibition of human SIK assessed as percent of control at 2000 nM by KINOMEscan assay relative to control; set-up: scale not given: the % may be the effect or the level left
Serine/threonine-protein kinase SIK1 (Homo sapiens), sequence (P57059 whole entry): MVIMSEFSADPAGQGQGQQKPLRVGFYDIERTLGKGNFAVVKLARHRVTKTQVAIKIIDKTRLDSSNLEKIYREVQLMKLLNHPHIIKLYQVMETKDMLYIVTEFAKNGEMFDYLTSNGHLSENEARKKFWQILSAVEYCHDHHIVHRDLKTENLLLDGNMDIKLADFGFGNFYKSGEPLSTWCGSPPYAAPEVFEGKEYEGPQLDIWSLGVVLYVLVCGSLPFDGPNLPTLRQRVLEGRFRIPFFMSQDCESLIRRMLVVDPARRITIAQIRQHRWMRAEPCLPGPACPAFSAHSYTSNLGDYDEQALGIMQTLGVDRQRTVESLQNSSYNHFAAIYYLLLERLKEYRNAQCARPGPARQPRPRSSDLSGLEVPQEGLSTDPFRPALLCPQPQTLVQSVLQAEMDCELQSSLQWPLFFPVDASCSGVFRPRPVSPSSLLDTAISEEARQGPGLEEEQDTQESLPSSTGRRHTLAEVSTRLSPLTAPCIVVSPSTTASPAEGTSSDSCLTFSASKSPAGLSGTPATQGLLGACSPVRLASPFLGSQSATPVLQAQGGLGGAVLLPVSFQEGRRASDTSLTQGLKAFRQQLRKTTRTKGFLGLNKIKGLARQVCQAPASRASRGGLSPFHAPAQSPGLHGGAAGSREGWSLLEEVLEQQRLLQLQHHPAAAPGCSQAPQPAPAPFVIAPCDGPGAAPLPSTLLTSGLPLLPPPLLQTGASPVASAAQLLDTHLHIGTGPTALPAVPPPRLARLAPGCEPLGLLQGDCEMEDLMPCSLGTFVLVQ

[17] = target: Ephrin type-A receptor 7 (Homo sapiens) (UniProt Q15375); assay: Inhibition of human EPHA7 assessed as percent of control at 2000 nM by KINOMEscan assay relative to control; set-up: scale not given: the % may be the effect or the level left
[18] = target: MAP/microtubule affinity-regulating kinase 4 (Homo sapiens) (UniProt Q96L34); assay: Inhibition of human MARK4 assessed as percent of control at 2000 nM by KINOMEscan assay relative to control; set-up: scale not given: the % may be the effect or the level left
[19] = target: Serine/threonine-protein kinase Sgk1 (Homo sapiens) (UniProt O00141); assay: Inhibition of human SGK assessed as percent of control at 2000 nM by KINOMEscan assay relative to control; set-up: scale not given: the % may be the effect or the level left
Serine/threonine-protein kinase Sgk1 (Homo sapiens), sequence (O00141 whole entry): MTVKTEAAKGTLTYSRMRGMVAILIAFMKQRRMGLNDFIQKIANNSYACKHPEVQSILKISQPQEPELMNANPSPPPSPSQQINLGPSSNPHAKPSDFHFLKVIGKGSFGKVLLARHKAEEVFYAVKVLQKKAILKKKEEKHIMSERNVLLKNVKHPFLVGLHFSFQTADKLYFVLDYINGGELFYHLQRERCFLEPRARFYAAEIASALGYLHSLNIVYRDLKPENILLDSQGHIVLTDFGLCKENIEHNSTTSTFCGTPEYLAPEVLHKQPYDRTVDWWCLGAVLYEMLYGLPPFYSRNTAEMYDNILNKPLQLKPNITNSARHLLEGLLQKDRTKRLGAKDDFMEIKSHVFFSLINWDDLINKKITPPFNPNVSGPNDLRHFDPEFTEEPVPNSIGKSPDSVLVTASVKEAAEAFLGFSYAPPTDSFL

[20] = target: Serine/threonine-protein kinase D3 (Homo sapiens) (UniProt O94806); assay: Inhibition of human PRKD3 assessed as percent of control at 2000 nM by KINOMEscan assay relative to control; set-up: scale not given: the % may be the effect or the level left
[21] = target: Activin receptor type-1B (Homo sapiens) (UniProt P36896); assay: Inhibition of human ACVR1B assessed as percent of control at 2000 nM by KINOMEscan assay relative to control; set-up: scale not given: the % may be the effect or the level left
[22] = target: Serine/threonine-protein kinase PRP4 homolog (Homo sapiens) (UniProt Q13523); assay: Inhibition of human PRP4 assessed as percent of control at 2000 nM by KINOMEscan assay relative to control; set-up: scale not given: the % may be the effect or the level left
[23] = target: Calcium/calmodulin-dependent protein kinase type II subunit alpha (Homo sapiens) (UniProt Q9UQM7); assay: Inhibition of human CAMK2A assessed as percent of control at 2000 nM by KINOMEscan assay relative to control; set-up: scale not given: the % may be the effect or the level left
[24] = target: Mitogen-activated protein kinase kinase kinase 4 (Homo sapiens) (UniProt Q9Y6R4); assay: Inhibition of human MAP3K4 assessed as percent of control at 2000 nM by KINOMEscan assay relative to control; set-up: scale not given: the % may be the effect or the level left
Mitogen-activated protein kinase kinase kinase 4 (Homo sapiens), sequence (Q9Y6R4 whole entry): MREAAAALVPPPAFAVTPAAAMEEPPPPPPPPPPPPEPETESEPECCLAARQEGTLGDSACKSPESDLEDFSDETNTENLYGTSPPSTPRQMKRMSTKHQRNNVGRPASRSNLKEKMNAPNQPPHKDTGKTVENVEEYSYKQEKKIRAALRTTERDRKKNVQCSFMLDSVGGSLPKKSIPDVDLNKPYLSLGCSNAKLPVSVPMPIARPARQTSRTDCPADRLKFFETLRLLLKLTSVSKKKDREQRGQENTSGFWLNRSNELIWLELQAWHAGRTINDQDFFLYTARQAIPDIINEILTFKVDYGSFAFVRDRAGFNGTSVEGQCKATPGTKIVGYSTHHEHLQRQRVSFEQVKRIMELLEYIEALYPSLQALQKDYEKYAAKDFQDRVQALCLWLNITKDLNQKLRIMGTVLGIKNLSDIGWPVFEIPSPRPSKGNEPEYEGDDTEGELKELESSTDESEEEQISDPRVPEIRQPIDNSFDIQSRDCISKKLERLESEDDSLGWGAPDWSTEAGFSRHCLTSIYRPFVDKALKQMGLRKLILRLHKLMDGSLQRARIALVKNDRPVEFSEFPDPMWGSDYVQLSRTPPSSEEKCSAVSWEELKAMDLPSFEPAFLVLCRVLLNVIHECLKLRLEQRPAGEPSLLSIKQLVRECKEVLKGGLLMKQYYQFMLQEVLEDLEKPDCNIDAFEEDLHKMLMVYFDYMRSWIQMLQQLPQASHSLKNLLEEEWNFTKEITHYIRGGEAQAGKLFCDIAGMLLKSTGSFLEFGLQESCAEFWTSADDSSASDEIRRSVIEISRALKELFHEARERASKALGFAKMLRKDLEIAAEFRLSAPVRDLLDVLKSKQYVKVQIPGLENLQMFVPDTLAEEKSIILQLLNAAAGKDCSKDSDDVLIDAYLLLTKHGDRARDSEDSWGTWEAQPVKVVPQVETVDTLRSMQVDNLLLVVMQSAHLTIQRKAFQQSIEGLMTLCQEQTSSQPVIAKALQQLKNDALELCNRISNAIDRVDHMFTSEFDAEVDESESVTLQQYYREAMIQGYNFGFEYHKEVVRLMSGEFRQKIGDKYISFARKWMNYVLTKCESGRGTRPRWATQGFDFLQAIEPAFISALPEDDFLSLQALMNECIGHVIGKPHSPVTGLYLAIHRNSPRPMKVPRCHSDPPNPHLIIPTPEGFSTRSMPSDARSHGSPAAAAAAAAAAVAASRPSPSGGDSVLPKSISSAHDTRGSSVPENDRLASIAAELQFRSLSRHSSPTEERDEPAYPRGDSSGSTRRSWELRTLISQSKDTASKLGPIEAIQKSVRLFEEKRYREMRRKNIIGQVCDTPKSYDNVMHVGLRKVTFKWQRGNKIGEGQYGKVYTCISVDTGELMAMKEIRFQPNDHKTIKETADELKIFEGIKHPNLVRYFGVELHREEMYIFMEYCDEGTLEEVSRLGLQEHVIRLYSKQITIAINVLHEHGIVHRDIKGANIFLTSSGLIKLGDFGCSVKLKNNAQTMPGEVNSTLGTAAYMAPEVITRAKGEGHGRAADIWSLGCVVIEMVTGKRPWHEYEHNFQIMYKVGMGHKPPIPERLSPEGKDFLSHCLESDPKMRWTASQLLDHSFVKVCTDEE

[25] = target: Mitogen-activated protein kinase kinase kinase 20 (Homo sapiens) (UniProt Q9NYL2); assay: Inhibition of human ZAK assessed as percent of control at 2000 nM by KINOMEscan assay relative to control; set-up: scale not given: the % may be the effect or the level left
[26] = target: Leukocyte tyrosine kinase receptor (Homo sapiens) (UniProt P29376); assay: Inhibition of human LTK assessed as percent of control at 2000 nM by KINOMEscan assay relative to control; set-up: scale not given: the % may be the effect or the level left
CWR22R = assay: Antitumor activity against human 22Rv1 cells expressing AR-V7 xenografted in male nude mouse assessed as suppression of tumor growth at 50 mg/kg, po administered daily for 15 days; type: functional, organism-based
[27] = target: Citron Rho-interacting kinase (Homo sapiens) (UniProt O14578); assay: Inhibition of human CIT assessed as percent of control at 2000 nM by KINOMEscan assay relative to control; set-up: scale not given: the % may be the effect or the level left
[28] = target: Mitogen-activated protein kinase 13 (Homo sapiens) (UniProt O15264); assay: Inhibition of human p38-delta assessed as percent of control at 2000 nM by KINOMEscan assay relative to control; set-up: scale not given: the % may be the effect or the level left
Mitogen-activated protein kinase 13 (Homo sapiens), sequence (O15264 whole entry): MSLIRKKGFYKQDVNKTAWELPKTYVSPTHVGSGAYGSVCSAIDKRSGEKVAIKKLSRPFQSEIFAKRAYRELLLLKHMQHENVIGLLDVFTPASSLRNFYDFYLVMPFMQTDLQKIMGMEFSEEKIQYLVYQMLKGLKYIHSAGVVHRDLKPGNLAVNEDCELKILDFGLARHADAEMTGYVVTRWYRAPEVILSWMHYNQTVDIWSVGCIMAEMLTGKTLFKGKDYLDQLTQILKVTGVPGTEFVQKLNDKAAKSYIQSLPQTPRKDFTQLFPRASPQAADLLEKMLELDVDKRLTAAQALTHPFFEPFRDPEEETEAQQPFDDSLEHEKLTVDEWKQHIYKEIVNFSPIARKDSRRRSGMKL

[29] = system: Receptor-type tyrosine-protein kinase FLT3 (Homo sapiens), P36888 [K663Q]; assay: Inhibition of human FLT3 K663Q mutant assessed as percent of control at 2000 nM by KINOMEscan assay relative to control; set-up: scale not given: the % may be the effect or the level left
[30] = target: Mitogen-activated protein kinase kinase kinase 15 (Homo sapiens) (UniProt Q6ZN16); assay: Inhibition of human MAP3K15 assessed as percent of control at 2000 nM by KINOMEscan assay relative to control; set-up: scale not given: the % may be the effect or the level left

SMILES: CN(C)C(=O)c1ccc(N2CCCN(c3ccnc4sc(C(N)=O)c(N)c34)CC2)cc1
- Activity [1]: 78% and 92%
- Activity [2]: 100%
- Activity [3]: 100% and 97%
- inhibition [4]: > 65%
- Activity [5]: 100% and 78%
- Activity [6]: 100% and 97%
- Activity [7]: 100% and 97%
- Activity [8]: 98% and 99%
- Activity [9]: 99% and 100%
- Activity [10]: 100% and 88%
- Activity [11]: 95% and 92%
- Activity [12]: 90% and 80%
- Activity [13]: 33% and 14%
- Activity [14]: 100%
- Activity [15]: 97% and 74%
- Activity [16]: 84% and 79%
- Activity [17]: 92% and 81%
- Activity [18]: 100% and 98%
- Activity [19]: 86% and 83%
- Activity [20]: 94% and 100%
- Activity [21]: 100% and 99%
- Activity [22]: 100% and 88%
- Activity [23]: 90% and 100%
- Activity [24]: 90% and 100%
- Activity [25]: 94% and 100%
- Activity [26]: 90% and 77%
- Activity (CWR22R): Active
- Activity [27]: 51% and 65%
- Activity [28]: 96% and 97%
- Activity [29]: 96% and 91%
- Activity [30]: 97% and 92%
